Results from patent US12358941B2, “Lipidic analogs of anti-cancer stem cell agent” (VIRGINIA COMMONWEALTH UNIVERSITY, priority 2019, dated 2025).
“And” between values parts separate entries of the source, which are not always exact repeats. Identical values can stand only once. “Also recorded” adds a separate entry of the source. Like-named read-outs stand apart in the source and are kept apart here.

Assays:
[1] = system: activated partial thromboplastin time (APTT), human plasma; test: APTT clotting assay in human plasma; format: biochemical; details: for Concentration required to double APTT: citrated human plasma; for Safety Index: APTT doubling concentration vs HT-29 CSC IC50
Procedure: Glycosaminoglycans, especially heparin/HS, are known for their ability to inhibit the coagulation system. Because G2.2 and its lipid analogs are mimetics of GAGs, it is important to study their effects on the coagulation system. We measured the concentration of lipid-modified G2.2 analogs required to double the activated partial thromboplastin time (APTT; Table 4). The experiments were performed as described in earlier work [Henry, B. L., et al. Blood Coag Fibrinol 2009, 20, 27-34]. Briefly, a standard one-stage recalcification assay in a BBL Fibrosystem fibrometer (Becton-Dickinson, Sparles, MD) was used to measure clotting times in human plasma. A 10 μL aqueous solution of the lipidic analog at a desired concentration was mixed with 90 μL of citrated human plasma and 100 μL of prewarmed APTT reagent. After incubation for 4 min at 37° C., clotting was initiated by adding 100 μL of prewarmed 25 mM CaCl2), and the time to clot was noted. The concentration of the analog required to double the clotting time was calculated from the clotting time versus concentration profile. In general, cholesterol modification of G2.2 increased its anticoagulation potency.

[2] = system: RKO colon spheroids; test: Primary spheroids inhibition assay, RKO; format: cell-based; details: FIG. 6
Procedure: The inhibitory potential of lipid-modified compounds of Formula I against CSCs was tested using a primary spheroids inhibition assay in various cancer cell lines including HT-29, RKO, HCT-116, LS1034, HC-15, WiDr, SW480, COLO205, NCI-H508, SW1116, LS174T, KM12 etc. Cells were grown both under monolayer and spheroid conditions as described in earlier work [Patel, N. J., et al. ACS Chem. Biol. 2014, 9, 1826-1833]. […] On day five, numbers of spheres ranging from 50 to 150 micrometers in diameter were counted using phase contrast microscope and percent inhibition was calculated compared to control. […] At the end of the incubation, 10 μL of 5 mg mL^−1 MTT solution ((3-(4,5-dimethylthiazol-2-yl)-2,5-diphenyltetrazolium bromide, Sigma) made in phosphate buffered saline (PBS) (Gibco) was added to each well and incubated for minimum of 2 to 3 h until crystals formation was observed. Following this, 150 μL of 4 mM HCl (Sigma) in isopropanol solution was added dropwise to each well and the mixture was triturated until the crystals dissolve completely. Finally, the plate was placed on the spectrophotometer reader and read at 590 nm and growth inhibition was calculated as percent of control.

[3] = system: HT-29 spheroids (CSCs); test: Primary spheroids inhibition assay, HT-29; format: cell-based
Procedure: (§1) The inhibitory potential of lipid-modified compounds of Formula I against CSCs was tested using a primary spheroids inhibition assay in various cancer cell lines including HT-29, RKO, HCT-116, LS1034, HC-15, WiDr, SW480, COLO205, NCI-H508, SW1116, LS174T, KM12 etc. Cells were grown both under monolayer and spheroid conditions as described in earlier work [Patel, N. J., et al. ACS Chem. Biol. 2014, 9, 1826-1833]. For primary sphere assay, cells were plated in non-treated, low adhesion, 96 wells plate at the concentration of 100 cells/100 μL/well in stem cell media (SCM) that consisted of DMEM:F12:AA, supplemented with 1×B27, 20 ng/mL epidermal growth factor, and 10 ng/mL fibroblast growth factor. After 4 h of incubation, vehicle (control) or G2.2 and its lipid analogs at the desired concentrations were added to each well (at least in triplicates for each sample). On day five, numbers of spheres ranging from 50 to 150 micrometers in diameter were counted using phase contrast microscope and percent inhibition was calculated compared to control. For monolayer assay, approximately 2.5×10^3 cells/100 μL/well were plated in 96-well tissue culture treated plate. After overnight incubation at 37° C. vehicle (control) or G2.2 was added at the desired concentration and the cells were further incubated for 60-72 h. At the end of the incubation, 10 μL of 5 mg mL^−1 MTT solution ((3-(4,5-dimethylthiazol-2-yl)-2,5-diphenyltetrazolium bromide, Sigma) made in phosphate buffered saline (PBS) (Gibco) was added to each well and incubated for minimum of 2 to 3 h until crystals formation was observed. Following this, 150 μL of 4 mM HCl (Sigma) in isopropanol solution was added dropwise to each well and the mixture was triturated until the crystals dissolve completely. Finally, the plate was placed on the spectrophotometer reader and read at 590 nm and growth inhibition was calculated as percent of control.

[4] = system: HT-29 cells (monolayer); test: Monolayer MTT growth assay, HT-29; format: cell-based; details: HT-29 monolayer growth
Procedure: as §1

[5] = system: normal colon tissue spheroids; test: Patient-derived spheroid growth, normal colon tissue; format: cell-based, human; details: 5 μM
[6] = system: CSC-induced HT-29 xenografts; test: CSC-induced HT-29 xenograft model; format: in vivo
Procedure: Briefly, the protocols were approved by the Animal Component of Research Protocol Committee at McGuire VA Medical Center, Richmond, VA Xenografts were generated by injecting 10^5 CD133 hi/CXCR4hi (Dual hi) fluorescence-activated cell sorter (FACS) isolated HT29 cells suspended in 50% reduced growth factor Matrigel (BD Bioscience; in 50 μL sterile PBS) into the right flank of 6-week-old, female NCr nude mice (Taconic Farms) subcutaneously.
Once the tumors reached 50 mm^3, mice were randomized to either of the three groups (vehicle, 200 mg/kg G2.2, or 100 mg/kg IIb) and dosed i.p three times a week for three weeks. Tumor measurements on each animal were made 3 times a week with Vernier calipers, and tumor volume was calculated using the formula: V=W^2 (L)/2, where V is the volume in mm^3, and W and L are the width and length in mm. […] The remainder of animals were monitored till they reached predefined humane end-points. Animals were sacrificed per Institutional Animal Care and Use Committee—approved methods of euthanasia.

[7] = Pharmacokinetics in rats, plasma concentration by fluorimetry; format: in vivo, Sprague-Dawley rats
Procedure: The animal protocol was approved by the Institutional Animal Care and Use Committee at VCU. Adult male Sprague-Dawley rats weighing 250-275 g were acclimatized for over 3 days with free access to standard rat diet and tap water. Animals were then placed on overnight fasting (i.e., without diet, but with free access to water) on a day before the PK studies. Each animal was anesthetized with an IP injection of urethane and an aliquot (0.1 mL) of blood was withdrawn as a prior-to-dosing or time 0 sample from the jugular vein with a use of 0.11 M sodium citrate (0.01 mL) as anti-coagulant. Rats (n=4 or 5) received G2.2 or IIb via IV injection or PO administration, while one animal received G2.2 via IP bolus injection. G2.2 and IIb were dissolved in sterile saline (0.1 mL IV and IP; 0.2 mLs PO). A series of blood aliquots (0.1 mL) were sampled from the jugular vein at different time points over 0 to 8 h. The blood samples were immediately centrifuged at 11,750 g for 3 min to yield the plasma samples, which were then stored at −70° C. At the conclusion of PK studies, all rats were euthanized by exsanguination under the surgical anesthesia.
The concentrations of G2.2 and lipid analogs in plasma were determined by the quantitative fluorimetry assay in which plasma samples were first diluted 2-fold (v/v) with 0.05 M PBS (pH 7.4), then an equal volume of methanol added and the mixture centrifuged at 11,750 g for 5 min. The supernatants were transferred to black 96 well-plates and the fluorescence at 528 nm (G2.2) or 460 nm (lipid analog) (λEX=340 nm) read using a microplate reader. Reference profiles, prepared for concentrations in the range of 0.5 and 50 μg/mL (R^2=0.98-0.99), were used to calculate plasma concentration at every time point.
The PK profile was analyzed using conventional analysis. The parameters deduced included peak plasma concentration (Cmax), the time required to reach Cmax (Tmax), the plasma concentration-time curve (AUC0-∞), the terminal half-life (t1/2), the apparent clearance (CL/F) and the apparent pseudo-steady state volume of distribution (Vpss/F). The absolute bioavailability (F) was deduced for G2.2, while relative bioavailability was deduced for lipid analogs.

[8] = system: cancerous tissue-derived primary human spheroids; test: Patient-derived spheroid growth, cancerous colon tissue; format: cell-based; details: 5 μM
[9] = system: xenografts-derived cells (HT-29), 3° spheroids; test: Ex vivo tertiary spheroid formation of xenograft-derived cells; format: cell-based; details: cells from treated xenografts, a week after last dose
Text: We also utilized our earlier observation that CSCs/progenitors are enhanced several-fold in spheroid culture and assessed the xenografts-derived cells for retention of tertiary spheroid growth inhibition profiles to distinguish between non self-renewing progenitors and self-renewing CSCs ex vivo.

[10] = background statement; cited from earlier work
[11] = HT-29 CSCs, Table 4, read-out: IC50 (HT-29 CSCs)
[12] = HT-29 spheroid growth, read-out: Spheroid IC50

Enoxaparin [reference compound]
Concentration required to double APTT [1]: 2.5 µM

CC(C)CCCC(C)C1CCC2C3CC=C4CC(OCCCCCOc5cc(-c6oc7cc(OS(=O)(=O)[O-])cc(OCCCOc8cc(OS(=O)(=O)[O-])cc9oc(-c%10ccc(OS(=O)(=O)[O-])c(OS(=O)(=O)[O-])c%10)c(OS(=O)(=O)[O-])c(=O)c89)c7c(=O)c6OS(=O)(=O)[O-])ccc5OS(=O)(=O)[O-])CCC4(C)C3CCC12C.[Na+].[Na+].[Na+].[Na+].[Na+].[Na+].[Na+] (centres unmarked) [IIb]
inhibition of RKO colon spheroids [2]: dose-dependent inhibition | IC50 [3, 11]: 8.2 ± 1.5 µM | IC50 [3, 12]: 8.2 ± 1.5 µM | IC50 [4]: > 500 µM | effect on spheroid growth formation, normal tissue [5]: without any effect | decrease in tumor volume compared with vehicle controls ([6]; 100 mg/kg i.p., 3 times a week x 3 weeks, end of treatment): > 80% | gross toxicity (animal body weight) ([6]; 100 mg/kg i.p., nude mice): did not show any gross toxic effects; also recorded: no gross toxicity | CSC markers (DCLK1, LGR5) and self-renewal factor (BMI-1), western blot of xenografts ([6]; 100 mg/kg i.p., vs vehicle): robust reduction; also recorded: reduction in CSC markers | tumor volume compared to vehicle treated mice ([6]; 100 mg/kg, i.p.): significant reduction in tumor volume | effect on tumor volume compared to G2.2 (200 mg/kg) ([6]; IIb 100 mg/kg i.p.): > 2 fold | CSC markers, flow cytometry analysis of mice xenografts ([6]; IIb treated mice): reduction in CSC markers | in vivo potency relative to G2.2 ([6]; overall in vivo studies): ~4 fold | peaks in the plasma concentration vs. time profile ([7]; PO nominal 50 mg/kg, rats, 0-8 h): At least 2 | inhibition of spheroid growth formation, cancerous tissue [8]: significantly inhibited | decrease in 3° spheroid formation vs vehicle controls [9]: 2.6 fold | Safety Index [1]: 6-fold | Concentration required to double APTT [1]: 48 µM

CC(C)CCCC(C)C1CCC2C3CC=C4CC(OCCCCCCCCOc5cc(-c6oc7cc(OS(=O)(=O)[O-])cc(OCCCOc8cc(OS(=O)(=O)[O-])cc9oc(-c%10ccc(OS(=O)(=O)[O-])c(OS(=O)(=O)[O-])c%10)c(OS(=O)(=O)[O-])c(=O)c89)c7c(=O)c6OS(=O)(=O)[O-])ccc5OS(=O)(=O)[O-])CCC4(C)C3CCC12C.[Na+].[Na+].[Na+].[Na+].[Na+].[Na+].[Na+] (centres unmarked) [IIc]
IC50 [3, 11]: 0.8 ± 0.2 µM | IC50 [3, 12]: 0.8 ± 0.2 µM | Monolayer IC50 [4]: 1079 ± 15% | absorption compared with G2.2 ([7]; PO, rats): far greater than that for G2.2 | Safety Index [1]: 63-fold | Concentration required to double APTT [1]: 50 µM

O=c1c(OS(=O)(=O)O)c(-c2ccc(OS(=O)(=O)O)c(OS(=O)(=O)O)c2)oc2cc(OS(=O)(=O)O)cc(OCCCOc3cc(OS(=O)(=O)O)cc4oc(-c5ccc(OS(=O)(=O)O)c(OS(=O)(=O)O)c5)c(OS(=O)(=O)O)c(=O)c34)c12 [Compound G2.2]
half-life [10]: 4 h | oral bioavailability [10]: < 1% | inhibition of RKO colon spheroids [2]: dose-dependent inhibition | IC50 [3, 11]: 29 ± 1 µM | IC50 [3, 12]: 29 ± 1 µM | IC50 [4]: > 500 µM | distribution phase ([7]; G2.2 IV bolus 50 mg/kg, rats): about 1.5 hours | AUC0-∞ (area under the plasma concentration v/s time curve) ([7]; IP 200 mg/kg, rat): 6398 µg·h/mL | Cmax ([7]; IP 200 mg/kg, rat): 925 µM | Cmax (maximum plasma concentration) ([7]; IP 200 mg/kg, rat): ~1350 µg/mL | t1/2 (terminal half-life) ([7]; IP 200 mg/kg, rat): 3 h | F (absolute bioavailability) ([7]; IP 200 mg/kg, rat, 200 mg/kg): 30% | terminal half-life ([7]; IV bolus 50 mg/kg, rats): 4.4 h | AUC0-∞ (area under the plasma concentration v/s time curve) ([7]; PO 200 mg/kg, rats): 584 µg·h/mL | Cmax ([7]; PO 200 mg/kg, rats): 55.6 µM | t1/2 (terminal half-life) ([7]; PO 200 mg/kg, rats): 4.6 h | Cmax (maximum plasma concentration) ([7]; PO 200 mg/kg, rats, 200 mg/kg): 81.2 µg/mL and 81 µg/mL | F (absolute bioavailability) ([7]; PO 200 mg/kg, rats, 200 mg/kg): 3% | Safety Index [1]: 22-fold | Concentration required to double APTT [1]: 640 µM
